Assays:
ZIKV [1] = assay: ZIKV reporter assay (luciferase-expressing ZIKV PAN1 Nluc in Huh7 cells); assay type: cell-based; conditions: Zika virus, Huh-7, Huh7, MOI 0.2, 72 hpi
Protocol: The initial screening for ZIKV was performed using the in-house developed infectious ZIKV reporter expressing Nanoluc (ZIKV PAN1 Nluc) (see details in SI). Briefly, 1.5 × 10^4 Huh7 cells per well were seeded in 96 well plates. Next day, cells were inoculated with the ZIKV reporter at a multiplicity of infection (MOI) of 0.2 in infection medium (MEM medium supplemented with 1% FBS, 100 IU streptomycin/penicillin per mL, 1 mM sodium pyruvate and 10 mM HEPES). After 2 h, the inoculum was replaced with post-infection medium (MEM medium supplemented with 5% FBS, 100 IU streptomycin/penicillin per mL, 1 mM sodium pyruvate and 10 mM HEPES) containing compound of interest (10 µM). We used the flavivirus NS5 MTase inhibitor NSC12155^13 (10 µM) and the NS5 RdRp inhibitor NITD008^12 (1 µM) as positive controls for inhibition or 0.05% DMSO as vehicle control. Seventy-two hours post-infection (hpi), the cells were lysed with 50 µL 1× luciferase lysis buffer (Promega, Madison, WI, USA), incubated 10 min at room temp and stored at −80 °C. Thirty-five µL of lysed cells were transferred to a white 96-well plate and combined with 35 µL Nano-Glo® luciferase assay substrate (Promega) diluted 1:50 in Nano-Glo® luciferase assay buffer (Promega). The reaction was incubated for 2 min and luminescence readings were acquired using a Neo 2 plate reader (BioTek, Winooski, VT, USA). Percent inhibition was calculated in GraphPad Prism (San Diego, CA, USA) normalizing the luciferase signal to infected cells treated with DMSO (0% inhibition) and uninfected cells treated with DMSO (100% inhibition). EC50 values were calculated in GraphPad Prism using data obtained from dose-response experiments. For compounds 1 and 8, a range of concentrations between 0.05 and 15 µM were used. For compounds 11, 14, 23 and NSC12155, we used concentrations from 0.005 to 90 µM and 0.002 to 45 µM for NITD008.

ZIKV [2] = assay: ZIKV titer-reduction assay (plaque assay); assay type: cell-based, Zika virus; conditions: Huh7, MOI 0.2, 72 hpi; for EC50 / EC90: Huh-7
Protocol: (§1) Selected compounds were validated at 8.5 µM or 1.5 µM (for compounds considered toxic at higher concentrations) using titer-reduction assays. Huh7 cells (1.5 × 10^5 per well) were plated in 24-well plates. Next day, the cells were inoculated with ZIKV or DENV (MOI 0.2 or 0.05, respectively) and two hours later, the inoculum was replaced with post-infection medium containing compound of interest at 8.5 µM or 1.5 µM. Seventy-two hpi, supernatants from infected and treated cells were collected and viral titers were measured by plaque assay. To visualize plaques, confluent Vero cells in 24-well plates were inoculated with 1:10 serial dilutions of supernatants. After two hours, the inoculum was retired and replaced with 800 µL of overlay medium (MEM medium containing 1.3% methylcellulose, 2% FBS, 100 IU streptomycin/penicillin per mL and 10 mM HEPES). After 5 days (7 days for DENV), cells were washed with PBS, fixed with 2% formaldehyde, and stained using 0.5% crystal violet in 25% methanol. Infectious virus titer (pfu/mL) was determined using the following formula: number of plaques × dilution factor × (1/inoculum volume (mL)). Viral titers were normalized with DMSO-treated and infected cells (0% inhibition). The limit of detection was 200 pfu/mL (100% inhibition). […] Dose-response assays (Figure S4, Panels B and C) were performed for selected compounds using titer-reduction assays. We used a concentration range of 0.5 to 15 µM for all selected compounds except for compound 14 (range of 0.1–3 µM). Pfu/mL were normalized as mentioned for single-dose response experiment using the values for DMSO-treated and infected cells (0% inhibition) and the limit of detection value (200 pfu/mL) as 100% inhibition. Dose-response curves were built in GraphPad Prism and EC50 values were obtained from those curves.

DENV-2 = assay: DENV titer-reduction assay (plaque assay); assay type: cell-based, dengue virus; conditions: 8.5 µM (compound 14 at 1.5 µM), Huh7, MOI 0.05, 72 h
Protocol: as §1
Figure 2 Inhibition of DENV by selected compounds. Huh7 cells were plated in 24 well plate. Next day, cells were inoculated with DENV (MOI = 0.05). After 2 h of infection inoculum was retired and the cells were treated with inhibitors at 8.5 µM (except for compound 14, 1.5 µM) for 72 h. Next, supernatants were assayed for viral titer by plaque assay and titers were normalized vs DMSO and expressed as % inhibition. The experiment was performed two independent times and each sample was performed in triplicate. The bars depict mean plus standard error of the mean.

[3] = Cell viability assay (MTS); assay type: cell-based; conditions: human, non-infected Huh7 cells; for viability at 10 µM: normalized to DMSO; for CC50 at 72 h: Huh7 cells
Protocol: Cell viability assays for non-infected Huh7 cells treated with the testing compounds (in-house library), control compounds (NITD008, RDV) and DMSO were performed in parallel with the antiviral screening. After 3 or 5 days of treatment, depending upon the experiment, cell viability was evaluated using the MTS-based tetrazolium reduction CellTiter 96 Aqueous Non-Radioactive cell proliferation assay (Promega). Treatment was retired from the wells and the cells incubated with MTS diluted 1:10 in MEM medium supplemented with 10% FBS. Absorbance was measured at 490 nm wavelength. Readings were normalized with DMSO-treated cells (100%) and expressed as % viability. For dose-response experiments, we used concentrations between 0.01 and 90 µM and dose-response curves and CC50 were calculated using GraphPad Prism.

ZIKV NS5 MTase = ZIKV NS5 MTase (Zika virus, UniProt A0A024B7W1); assay: ZIKV NS5 MTase biochemical assay; conditions: read-out: IC50 against ZIKV NS5 MTase
ZIKV NS5 MTase, sequence (A0A024B7W1 2521-2785): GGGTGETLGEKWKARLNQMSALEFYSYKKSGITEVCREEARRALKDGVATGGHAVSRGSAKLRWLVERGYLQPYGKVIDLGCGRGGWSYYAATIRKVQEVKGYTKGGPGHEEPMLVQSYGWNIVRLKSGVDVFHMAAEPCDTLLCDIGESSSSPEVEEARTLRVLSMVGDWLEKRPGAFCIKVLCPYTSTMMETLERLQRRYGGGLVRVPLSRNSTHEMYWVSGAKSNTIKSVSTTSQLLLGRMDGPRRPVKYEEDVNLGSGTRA

With `N#Cc1ccc(Cn2ccc3c(NCc4cccc(Cl)c4)ncnc32)cc1` [Compound 8, 4-((4-((3-Chlorobenzyl)amino)-7H-pyrrolo[2,3-d]pyrimidin-7-yl)methyl)benzonitrile] the inhibition at 10 µM (ZIKV [1]) was 78%, the EC50 (ZIKV [1]) was 4.1 µM and the inhibition at 1.5 µM (ZIKV [2]; Zika virus, Huh-7, 72 h, 1.5 µM) was 47%. For the same molecule, the inhibition at 8.5 µM (ZIKV [2]; Zika virus, Huh-7, 72 h) was 97%, the EC50 (ZIKV [2]; Zika virus) was 4.29 µM and the EC90 (ZIKV [2]; Zika virus) was 9.02 µM. The “Inhibition of DENV (% inhibition / protection)” value (DENV-2) was “among the top inhibitors”, the viability at 10 µM [3] was 68% and the CC50 at 72 h [3] was 20.6 µM.

With `O=[N+]([O-])c1ccc(Cn2ccc3c(NCc4cccc(Cl)c4)ncnc32)cc1` [Compound 1, N-(3-Chlorobenzyl)-7-(4-nitrobenzyl)-7H-pyrrolo [2,3-d]pyrimidin-4-amine] the inhibition at 10 µM (ZIKV [1]) was 73%, the EC50 (ZIKV [1]) was 5.25 µM and the inhibition at 8.5 µM (ZIKV [2]; Zika virus, Huh-7, 72 h) was 93%. The EC50 (ZIKV [2]; Zika virus) was 5.21 µM, the EC90 (ZIKV [2]; Zika virus) was 10.7 µM and the “Inhibition of DENV (% inhibition / protection)” value (DENV-2) was “among the top inhibitors”. The viability at 10 µM [3] was 69%, the CC50 at 72 h [3] was 20 µM and the IC50 (ZIKV NS5 MTase) was > 100 µM.

In the case of `O=[N+]([O-])c1ccc(Cn2ccc3c(NCc4ccc(Cl)c(Cl)c4)ncnc32)cc1` [Compound 23, N-(3,4-Dichlorobenzyl)-7-(4-nitrobenzyl)-7H-pyrrolo[2,3-d]pyrimidin-4-amine], the inhibition at 10 µM (ZIKV [1]) is reported as 91%, the EC50 (ZIKV [1]) is reported as 5.7 µM and the “Titer Reduction Assay EC99” value (ZIKV [2]; NR = not reached) is reported as 12.0 µM. It also gave an inhibition at 8.5 µM (ZIKV [2]; Zika virus, Huh-7, 72 h) of 98%, an EC50 (ZIKV [2]; Zika virus) of 5.91 µM and an EC90 (ZIKV [2]; Zika virus) of 10.4 µM. For the same molecule, the “Inhibition of DENV (% inhibition / protection)” value (DENV-2) was “among the top inhibitors”, the viability at 10 µM [3] was 80% and the CC50 at 72 h [3] was 26.8 µM.

For `N#Cc1cccc(Cn2ccc3c(NCc4cccc(Cl)c4)ncnc32)c1` [Compound 11, 3-((4-((3-Chlorobenzyl)amino)-7H-pyrrolo[2,3-d]pyrimidin-7-yl)methyl)benzonitrile], the inhibition at 10 µM (ZIKV [1]) was 90%, the EC50 (ZIKV [1]) was 3.16 µM and the inhibition at 8.5 µM (ZIKV [2]; Zika virus, Huh-7, 72 h) was 99%. The EC50 (ZIKV [2]; Zika virus) was 5.05 µM, the EC90 (ZIKV [2]; Zika virus) was 6.98 µM and the “Inhibition of DENV (% inhibition / protection)” value (DENV-2) was “among the top inhibitors”. The viability at 10 µM [3] was 60% and the CC50 at 72 h [3] was 15.3 µM.

Work on `O=[N+]([O-])c1cccc(Cn2ccc3c(NCc4cccc(Cl)c4)ncnc32)c1` [Compound 5, N-(3-Chlorobenzyl)-7-(3-nitrobenzyl)-7H-pyrrolo[2,3-d]pyrimidin-4-amine] yielded an inhibition at 10 µM (ZIKV [1]) of 77%, an inhibition at 8.5 µM (ZIKV [2]; Zika virus, Huh-7, 72 h) of 92% and a viability at 10 µM [3] of 79%.

Work on `CS(=O)(=O)c1cccc(Cn2ccc3c(NCc4cccc(Cl)c4)ncnc32)c1` [Compound 10, N-(3-Chlorobenzyl)-7-(3-(methylsulfonyl)benzyl)-7H-pyrrolo[2,3-d]pyrimidin-4-amine] yielded an inhibition at 10 µM (ZIKV [1]) of 72%, an inhibition at 8.5 µM (ZIKV [2]; Zika virus, Huh-7, 72 h) of 92% and a viability at 10 µM [3] of 82%.

Molecule `O=[N+]([O-])c1ccc(Cn2ccc3c(NCc4ccccc4Cl)ncnc32)cc1` [Compound 19, N-(2-Chlorobenzyl)-7-(4-nitrobenzyl)-7H-pyrrolo[2,3-d]pyrimidin-4-amine] has an inhibition at 10 µM (ZIKV [1]) of 49%, an inhibition at 8.5 µM (ZIKV [2]; Zika virus, Huh-7, 72 h) of 91% and a viability at 10 µM [3] of 80%.

`N#Cc1ccc(Cn2ncc3c(NCc4cccc(Cl)c4)ncnc32)cc1` [Compound 32, 4-((4-((3-Chlorobenzyl)amino)-1H-pyrazolo[3,4-d]pyrimidin-1-yl)methyl)benzonitrile] showed an inhibition at 10 µM (ZIKV [1]) of 79%, an inhibition at 8.5 µM (ZIKV [2]; Zika virus, Huh-7, 72 h) of 88% and a viability at 10 µM [3] of 88%. For the same molecule, the CC50 at 72 h [3] was 17.4 µM.

In the case of `Nc1ccc(Cn2ccc3c(NCc4cccc(Cl)c4)ncnc32)cc1` [Compound 2, 7-(4-Aminobenzyl)-N-(3-chlorobenzyl)-7H-pyrrolo[2,3-d]pyrimidin-4-amine], the inhibition at 10 µM (ZIKV [1]) is reported as 72%, the “Titer Reduction Assay % at 1.5 µM” value (ZIKV [2]; 1.5 µM) is reported as “toxic” and the viability at 10 µM [3] is reported as 38%.

Work on `O=[N+]([O-])c1ccc(Cn2ccc3c(NCc4cc(Cl)ccc4Cl)ncnc32)cc1` [Compound 22, N-(2,5-Dichlorobenzyl)-7-(4-nitrobenzyl)-7H-pyrrolo[2,3-d]pyrimidin-4-amine] yielded an inhibition at 10 µM (ZIKV [1]) of 71%, an inhibition at 8.5 µM (ZIKV [2]; Zika virus, Huh-7, 72 h) of 77% and a viability at 10 µM [3] of 62%. The CC50 at 72 h [3] was 26.9 µM.

`O=[N+]([O-])c1ccc(Cn2cnc3c(NCc4cccc(Cl)c4)ncnc32)cc1` [Compound 29, N-(3-Chlorobenzyl)-9-(4-nitrobenzyl)-9H-purin-6-amine] showed an inhibition at 10 µM (ZIKV [1]) of 59%, an inhibition at 8.5 µM (ZIKV [2]; Zika virus, Huh-7, 72 h) of 90% and a viability at 10 µM [3] of 87%. It also gave a CC50 at 72 h [3] of 24.5 µM.
